Entries after “also recorded” stand apart in the source; their conditions may differ. Read-outs that look alike come from different tables or passages of the source.
Legend:
[1] = system: FRDA patient-derived B cells (GM16214)
Description: (§5) Left panels: mature frataxin (FXN) and tubulin expression (TUB) was analyzed by western blot. Data are representative of three independent experiments. Right panels: densitometric quantification of frataxin accumulation. Frataxin expression was normalized with tubulin and frataxin expression in non-treated cells (NT) set to one. Data represent the mean±1 S.E.M. from three different independent experiments performed for each inhibitor in the left panels.
(§6) Total cell extracts were prepared in ice-cold modified RIPA buffer (10 mM sodium phosphate pH 7.2, 150 mM NaCl, 1% Na deoxycholate, 0.1% SDS, 1% Nonidet P-40, 2 mM EDTA) or IP buffer (50 mM Tris-HCl, pH 7.5, 150 mM NaCl, 1% Nonidet P-40, 5 mM EDTA, 5 mM EGTA) supplemented with complete protease inhibitor cocktail (Roche Diagnostics, Milan, Italy), sodium orthovanadate 1 mM and NaF 25 mM to inhibit phosphatases.
(§7) Cell lysates (100 μg) were resolved by SDS-PAGE and analyzed by immunoblot with specific mAb anti-frataxin clone 1G2 and STR-23 (Immunological Sciences, Rome, Italy) mAb anti-tubulin (Sigma), mAb anti-actin (Sigma), mAb anti-phosphotyrosine (Millipore), pAb anti-phospho-Src (Life Technologies), mAb anti-GFP (Takara), secondary antibody horseradish peroxidase-conjugated goat anti-mouse (Pierce), secondary antibody horseradish peroxidase-conjugated mouse anti-rabbit (Pierce), secondary antibody horseradish peroxidase-conjugated goat anti-Fc anti-mouse (Thermo Scientific) using ECL system detection (GE Healthcare Europe GmbH, Milan, Italy).
(§8) For treatment longer than 24 h, inhibitors were added every 2 days, and each time lymphoblasts were centrifuged and resuspended at 400.000 cells/ml with the indicated concentration of inhibitor.
(§9) FRDA lymphoblasts were exposed to these inhibitors for different time periods.

[2] = system: endogenous frataxin in HEK293 cells; assay: Endogenous frataxin accumulation in HEK293 cells (western blot, densitometry); assay type: cell-based, human; conditions: 1, 3 and 10 μM, 24 h
Description: Human HEK293 cells were treated with 1, 3 and 10 μM of SU6656, PP2, and dasatinib Src inhibitor or vehicle (−) for 24 h. Frataxin (FXN) and tubulin expression (TUB) was analyzed by western blot. Data are representative of three independent experiments. […] Right panels: densitometric quantification of frataxin accumulation. Frataxin expression was normalized with tubulin and frataxin expression in non-treated cells (NT) set to one. Data represent the mean±1 S.E.M. from three different independent experiments performed for each inhibitor in the left panels.
Human embryonic kidney HEK-293 cells were cultured in Dulbecco's modified Eagle's medium (DMEM) supplemented with 10% fetal bovine serum (FBS). […]
Cell lysates (100 μg) were resolved by SDS-PAGE and analyzed by immunoblot with specific mAb anti-frataxin clone 1G2 and STR-23 (Immunological Sciences, Rome, Italy) mAb anti-tubulin (Sigma), mAb anti-actin (Sigma), mAb anti-phosphotyrosine (Millipore), pAb anti-phospho-Src (Life Technologies), mAb anti-GFP (Takara), secondary antibody horseradish peroxidase-conjugated goat anti-mouse (Pierce), secondary antibody horseradish peroxidase-conjugated mouse anti-rabbit (Pierce), secondary antibody horseradish peroxidase-conjugated goat anti-Fc anti-mouse (Thermo Scientific) using ECL system detection (GE Healthcare Europe GmbH, Milan, Italy). […]

[3] = system: HEK293^FXN cells stably expressing non-phosphorylable Y118F frataxin mutant; assay: Frataxin accumulation (western blot, densitometry) in HEK293^FXN cells expressing Y118F frataxin mutant; assay type: cell-based, human; conditions: 1, 3 and 10 μM, 24 h
Description: (§1) FIG. 4. […] HEK293^FXN cells stably expressing single copy of wild type frataxin (WT) or non-phosphorylable Y118F frataxin mutant (Y118F) were treated for 24 h with 1, 3, and 10 μM of either Src inhibitor SU6656, PP2, dasatinib, bosutinib, saracatinib, or vehicle (−). […] Data are representative of three independent experiments. The precursor (P), intermediate (I) and mature (M) frataxin forms are indicated. Right panels: Densitometric quantification of frataxin accumulation for the corresponding inhibitor.
(§2) HEK-293 Flp-In cells (Life Technologies) are HEK-293 variants allowing the stable and isogenic integration and expression of a transfected gene. The HEK-293 clone stably expressing frataxin^1-210 (Condo et al. 2007) and the clone stably expressing frataxin^V118F were generated by mutagenesis as described below. HEK-293 Flp-In cells were maintained in DMEM supplemented with 10% FBS.
(§3) Densitometric analyses were performed using ImageLab software (Biorad).
(§4) Because phosphorylation on Y118 promotes ubiquitination and that preventing ubiquitin-dependent degradation increases frataxin levels (Rufini et al. 2011), the effects of frataxin phosphorylation by Src kinase were tested for enhancement of frataxin expression.

[4] = system: HEK293^FXN cells stably expressing single copy of wild type frataxin; assay: Frataxin accumulation (western blot, densitometry) in HEK293^FXN cells expressing wild type frataxin; assay type: cell-based, human; conditions: 1, 3 and 10 μM, 24 h
Description: as §1, §2, §3, §4

[5] = system: FRDA patient-derived B cells (GM16214); assay: Frataxin accumulation in frataxin-deficient FRDA patient-derived B cells (western blot, densitometry); conditions: for frataxin accumulation in frataxin-deficient cells (mature frataxin): FRDA patient-derived B cells, 10 μM, time course 24 h to 72 h
Description: as §5, §6, §7, §8, §9

[6] = system: HEK293^FXN cells stably expressing a single copy of wild-type frataxin; assay: Frataxin precursor accumulation with Src inhibitor, ubiquitin competing molecule or combination in HEK293^FXN cells; conditions: F166 1 uM; 24 h
Description: Data are representative of four independent experiments. […] The frataxin expression was normalized with tubulin, and frataxin expression in non-treated cells (−) was set to 1. Data represent the mean±1 S.E.M. from four independent experiments.
The frataxin precursor (FXN) and tubulin expression (TUB) were analyzed by western blot (FIG. 7A). The data shown are representative of four independent experiments.
The amount of frataxin accumulation was quantified by densitometry (FIG. 7B). Frataxin expression was normalized with tubulin, and frataxin expression in non-treated cells (−) was set to 1. The data shown represent the mean±1 S.E.M. from four independent experiments.

nude mice = conditions: mouse, in vivo, po; cited from earlier work

CN(C)S(=O)(=O)c1ccc2c(c1)/C(=C/c1cc3c([nH]1)CCCC3)C(=O)N2 [SU6656]
tolerability in cells [1]: best tolerated | endogenous frataxin accumulation [2]: promote endogenous frataxin accumulation | frataxin accumulation (frataxin normalized with tubulin, non-treated cells set to one) [3]: not the non-phosphorylable Y118F frataxin mutant | frataxin accumulation (frataxin normalized with tubulin, non-treated cells set to one) [4]: upregulate wild type frataxin | frataxin accumulation in frataxin-deficient cells (mature frataxin) [5]: further accumulated within 72 h; also recorded: promote frataxin accumulation

CC(C)(C)n1nc(-c2ccc(Cl)cc2)c2c(N)ncnc21 [PP2]
tolerability in cells [1]: best tolerated | endogenous frataxin accumulation [2]: promote endogenous frataxin accumulation | frataxin accumulation (frataxin normalized with tubulin, non-treated cells set to one) [3]: not the non-phosphorylable Y118F frataxin mutant | frataxin accumulation (frataxin normalized with tubulin, non-treated cells set to one) [4]: upregulate wild type frataxin | frataxin accumulation in frataxin-deficient cells (mature frataxin) [5]: promote frataxin accumulation

COc1ccccc1C(=O)N/N=C(\C)c1ccc2c(c1)Nc1ccccc1S2 [F166]
frataxin precursor accumulation, single agent [6]: accumulate frataxin precursor

Cc1nc(Nc2ncc(C(=O)Nc3c(C)cccc3Cl)s2)cc(N2CCN(CCO)CC2)n1 [dasatinib]
toxicity of regimen (nude mice): no toxicity | tolerability in cells ([5]; FRDA patient-derived B cells (GM16214)): best tolerated

From US20170296540A1, “METHODS OF TREATING FRIEDREICH'S ATAXIA USING SRC INHIBITORS” (Fratagene Therapeutics S.R.L., priority 2014, published 2017)
